Test results taken from patent US9879036B2, “Mitochondrial aldehyde dehydrogenase-2 binding compounds and methods of use thereof” (Aviv Therapeutics, Inc., priority 2014, dated 2018).
Where a chain is given by its changes, count along the chain named.

Columns and labels:
ALDH2 = molecular target: T1, ALDH2 (Homo sapiens, UniProt P05091); assay: ALDH2 activity with 20 μM of the compound (Table 3); assay type: biochemical; conditions: 20 μM compound
T1 construct: His-tag (N); made in house; host or cells: E. coli BL21
T1 sequence (P05091 18-517): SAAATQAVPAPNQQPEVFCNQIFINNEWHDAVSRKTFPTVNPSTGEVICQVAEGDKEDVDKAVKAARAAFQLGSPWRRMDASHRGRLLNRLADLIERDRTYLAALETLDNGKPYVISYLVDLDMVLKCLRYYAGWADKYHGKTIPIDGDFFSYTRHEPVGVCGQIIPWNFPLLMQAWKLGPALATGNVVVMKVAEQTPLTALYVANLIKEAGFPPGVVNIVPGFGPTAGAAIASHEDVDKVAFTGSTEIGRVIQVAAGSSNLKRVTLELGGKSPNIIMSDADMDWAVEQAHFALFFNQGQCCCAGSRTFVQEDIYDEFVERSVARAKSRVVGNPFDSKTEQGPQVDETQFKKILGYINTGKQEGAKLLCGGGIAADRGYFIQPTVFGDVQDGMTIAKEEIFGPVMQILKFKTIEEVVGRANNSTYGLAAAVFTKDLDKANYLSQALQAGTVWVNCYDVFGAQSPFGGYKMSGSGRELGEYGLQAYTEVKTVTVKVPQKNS
Summary of the method: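 Compound was tested at 20 μM. ALDH2 oxidation of acetaldehyde with NAD+ cofactor was followed spectrophotometrically as NADH accumulation at 340 nm. Activity is expressed relative to the enzyme's baseline activity, taken as 100%.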

ALDH2*1/*2 = molecular target: T2, ALDH2*1/*2 (Homo sapiens, UniProt P05091, E504K); assay: ALDH2 enzymatic activity, NADH accumulation at 340 nm, acetaldehyde substrate, heterozygous form; assay type: biochemical; conditions: relative to baseline enzymatic activity (100%)
T2 construct: His-tag; made in house; host or cells: E. coli BL21 (pETDuet-1 co-expression)
T2 sequence (P05091 18-517): T1 sequence (P05091 18-517)
T2 sequence (P05091 18-517 E504K): T1 sequence (P05091 18-517) with E487K
Procedure: (§1) ALDH2 catalyzes the oxidative reaction of substrate acetaldehyde to acetic acid using NAD^+ as a cofactor. Enzymatic activity, or catalytic rate, of aldehyde dehydrogenase (ALDH2) are measured spectrophotometrically at UV wavelength λ340 nm by the accumulation of reduced product NADH derived from NAD^+. Absorbance at λ340 nm is quantitatively proportional to the amount of NADH being produced over time (6.22 O.D. unit=1 mmol of NADH, measured in a 1-cm width standard cuvette). This method is well-established in the literature [e.g. Rex et al., Alcohol Clin. Exp. Res. 9, 147 (1985)].
as §1, with “can be” for “are”
Cloning, expression and purification of human ALDH2 wild type and ALDH2*2 recombinant mutant enzymes: Full-length wild type human ALDH2 cDNA was purchased from ATCC (No. MGC-1806. GenBank ID: BC002967). The 18-amino acid mitochondria transport signal sequence was removed by PCR and cloned into the NheI/HindIII sites of a His-tag vector, pTrcHis, using standard molecular cloning techniques. The human ALDH2* cDNA construct containing the Asian E487K mutation was obtained by site-directed mutagenesis to create the E487K substitution of the wild type ALDH2. Both human clones were designed to express a recombinant protein with the His-tag at the N-terminus of the protein. For the co-expression experiments of human ALDH2 wild type and ALDH2*2 heterotetramers, a wild type ALDH2 gene and a ALDH2 E487K gene were inserted separately into the two multiple cloning sites of pETDuet-1 vector. (Novagen, CA, USA). All the vectors were transformed into BL21 E. coli host cells and subjected to 0.5 mM IPTG induction for protein expression at 30° C. Purifications of the recombinant proteins by affinity nickel columns (HisTrap, GE Healthy Science, USA) were carried out using standard protocols according to manufacturer's instructions (Novagen, USA).
ALDH2 catalyzes the oxidative reaction of substrate acetaldehyde to acetic acid using NAD^+ as a cofactor. Enzymatic activity, or catalytic rate, of aldehyde dehydrogenase (ALDH2) can be measured spectrophotometrically at UV wavelength λ340 nm by the accumulation of reduced product NADH derived from NAD^+. Because compounds of formula (I) are considered to be agonists or “activators” of ALDH2 the enzymatic activity measured will exceed 100% of the baseline enzymatic activity of the enzyme in its normal activation state. As the concentration of the compounds of formula (I) decreases from 20 micromolar to 0.16 micromolar in the presence of ALDH, a decrease in the activation of enzymatic activity is observed for the wild-type ALDH2*1/*1 and the heterozygous form ALDH2*1/*2.

Q: Which results are given for COc1ccc(CNC(=O)c2cc(-c3ncccc3CO)ccc2OCC2CC2)cc1F [AC6]?
A: activity at 20 µM (ALDH2): > 250%; activity at 2.5 µM (ALDH2*1/*2; 2.5 μM compound): 202%; activity at 5 µM (ALDH2*1/*2; 5 μM compound): 260%; activity at 10 µM (ALDH2*1/*2; 10 μM compound): 281%; activity at 20 µM (ALDH2*1/*2; 20 μM compound): 336%
